Biological target: T1, PTPase from thermus thermophilus HB27 (Thermus thermophilus, UniProt Q72JF6)
T1 construct: gene TT_C0816; recombinant, cloned into pET-28a(+), E. coli BL21(DE3), purified; LMW PTPase EC 3.1.3.48; P-loop CLGNICRS, residues Cys11, Cys16, Arg17, Asp123 (Tt1001)
T1 sequence (Q72JF6 1-161): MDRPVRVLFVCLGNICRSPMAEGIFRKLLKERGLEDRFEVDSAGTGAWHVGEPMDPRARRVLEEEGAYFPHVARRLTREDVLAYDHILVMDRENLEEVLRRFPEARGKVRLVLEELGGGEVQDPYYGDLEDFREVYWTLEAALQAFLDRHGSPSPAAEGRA
Assay: residual pNPP phosphatase activity, absorbance […] nm
Type: biochemical

CCCCCCCCCCCCOS(=O)(=O)O [SDS]
IC50: 11.3 µM

From paper PMC7035334, “Effects of SDS on the activity and conformation of protein tyrosine phosphatase from thermus thermophilus HB27” (Scientific Reports, 2020)
